Results published in PubChem BioAssay (NCI).
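Results reflect a 48-hour exposure of cells in 96-well plates to compound at five concentrations. Here, GI50 denotes the concentration required for 50% inhibition of growth. At the TGI there is no net growth.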

Key:
Test in all cases: NCI tumour cell line growth inhibition, 48 h
NCI-H226 lung = system: NCI-H226 lung
NCI-H23 lung = system: NCI-H23 lung
NCI-H460 lung = system: NCI-H460 lung
NCI-H522 lung = system: NCI-H522 lung
NCI/ADR-RES ovarian = system: NCI/ADR-RES ovarian
OVCAR-3 ovarian = system: OVCAR-3 ovarian
OVCAR-4 ovarian = system: OVCAR-4 ovarian
OVCAR-5 ovarian = system: OVCAR-5 ovarian
OVCAR-8 ovarian = system: OVCAR-8 ovarian
PC-3 prostate = system: PC-3 prostate
RPMI-8226 leukemia = system: RPMI-8226 leukemia
RXF 393 renal = system: RXF 393 renal
SF-268 CNS = system: SF-268 CNS
SF-295 CNS = system: SF-295 CNS
SF-539 CNS = system: SF-539 CNS
SK-MEL-2 melanoma = system: SK-MEL-2 melanoma
SK-MEL-28 melanoma = system: SK-MEL-28 melanoma
SK-MEL-5 melanoma = system: SK-MEL-5 melanoma
SK-OV-3 ovarian = system: SK-OV-3 ovarian
SN12C renal = system: SN12C renal
SNB-19 CNS = system: SNB-19 CNS
SNB-75 CNS = system: SNB-75 CNS
SR leukemia = system: SR leukemia
SW-620 colon = system: SW-620 colon
T-47D breast = system: T-47D breast
TK-10 renal = system: TK-10 renal
U251 CNS = system: U251 CNS
UACC-257 melanoma = system: UACC-257 melanoma
UACC-62 melanoma = system: UACC-62 melanoma
UO-31 renal = system: UO-31 renal

## O=C(NO)c1ccc(CNC(=O)[C@H]2Cc3c([nH]c4ccccc34)[C@H](c3ccccc3)N2)cc1
NCI-H226 lung
  TGI: > 23.7 µM
NCI-H23 lung
  GI50: 4.71 µM
  TGI: 18.3 µM
NCI-H460 lung
  GI50: 3.59 µM
  TGI: > 23.7 µM
NCI-H522 lung
  GI50: 0.685 µM
  TGI: 5.64 µM
NCI/ADR-RES ovarian
  GI50: 5.72 µM
  TGI: > 23.7 µM
OVCAR-3 ovarian
  GI50: 2.51 µM
  TGI: 12.6 µM
OVCAR-4 ovarian
  GI50: 8.3 µM
  TGI: > 23.7 µM
OVCAR-5 ovarian
  GI50: 1.42 µM
  TGI: 6.84 µM
OVCAR-8 ovarian
  GI50: 1.43 µM
  TGI: > 23.7 µM
PC-3 prostate
  GI50: 5.39 µM
  TGI: > 23.7 µM
RPMI-8226 leukemia
  GI50: 1.35 µM
  TGI: > 23.7 µM
RXF 393 renal
  GI50: 1.92 µM
  TGI: 6.54 µM
SF-268 CNS
  GI50: 5.5 µM
  TGI: > 23.7 µM
SF-295 CNS
  GI50: 3.34 µM
  TGI: 7.89 µM
SF-539 CNS
  GI50: 3.73 µM
  TGI: > 23.7 µM
SK-MEL-2 melanoma
  GI50: 3.66 µM
  TGI: 14.6 µM
SK-MEL-28 melanoma
  GI50: 3.13 µM
  TGI: 22 µM
SK-MEL-5 melanoma
  GI50: 2.66 µM
  TGI: 5.93 µM
SK-OV-3 ovarian
  GI50: 3.28 µM
  TGI: 11.3 µM
SN12C renal
  GI50: 5.27 µM
  TGI: 23.5 µM
SNB-19 CNS
  GI50: 5.19 µM
  TGI: > 23.7 µM
SNB-75 CNS
  GI50: 1.99 µM
  TGI: > 23.7 µM
SR leukemia
  GI50: 0.449 µM
  TGI: > 23.7 µM
SW-620 colon
  GI50: 2.31 µM
  TGI: 7.76 µM
T-47D breast
  GI50: 1.03 µM
  TGI: 9.84 µM
TK-10 renal
  GI50: 2.88 µM
  TGI: 19.2 µM
U251 CNS
  GI50: 2.78 µM
  TGI: 12.9 µM
UACC-257 melanoma
  GI50: 1.43 µM
  TGI: 15.9 µM
UACC-62 melanoma
  GI50: 1.13 µM
  TGI: 4.64 µM
UO-31 renal
  GI50: 5.58 µM
  TGI: > 23.7 µM
